Columns and labels:
[1] = tested on: ovariectomy-induced (postmenopausal) obesity model; experiment: Ovariectomy-induced obesity model; type: in vivo, female C57BL6 mice; details: OVX mice
Procedure: For the ovariectomy-induced obesity model, 6 week old female C57BL6 mice were sham operated or ovariectomized and the study was carried out for 9 weeks as indicated above.
Since it was shown that β-SERMs affected body composition in an animal model of high fat diet-induced obesity, they might also be effective in an animal model of postmenopausal obesity.

[2] = tested on: LNCaP prostate cancer cells; experiment: 3H thymidine incorporation, LNCaP cells; type: cell-based; details: 6 days treatment
Procedure: The effects of treatment of an ER-β selective NRBA of this invention on cancer cell proliferation was examined using LNCaP prostate cancer cells and C-26 colon cancer cells. LNCaP or C-26 cells were plated in growth medium in 24 well and 6 well plates, respectively. LNCaP cells were treated for 6 days and C-26 cells were treated for 3 days at the indicated concentration. ^3H thymidine incorporation was measured at the end of treatment as an indicator of cell proliferation.

[3] = tested on: LNCaP cells and human prostate stromal cells xenograft; experiment: LNCaP-stromal cell xenograft tumor growth; type: in vivo, nude mice; details: 30 mg/kg/day for 21 days
Procedure: Prostate tumor xenografts were established with LNCaP cells and human prostate stromal cells in nude mice to establish the in vivo anti-proliferative effects of these ER-β NRBAs. A 4:1 ratio (based on cell number) of LNCaP:stroma cells was injected subcutaneously in nude mice and allowed to grow until they attained 100 mm^3 in volume, as measured by calipers. […] Tumor volumes were measured twice a week and percent tumor volume calculated, after 10, 14 and 21 days.

SMILES: O=c1c2c(O)cc(O)cc2c(Br)cn1-c1ccc(O)cc1 [12u, 4-bromo-6,8-dihydroxy-2-(4-hydroxyphenyl)isoquinolin-1(2H)-one]
- Body weight gain [1]: did not inhibit body weight gain
- Fat mass (MRI) [1]: completely prevented the increase in fat mass
- Feed consumption [1]: increased the feed consumption
- Lean mass (MRI) [1]: significantly increased lean mass
- Uterine weight [1]: without affecting uterine weight
- WAT weight [1]: completely inhibited the WAT
- Growth of LNCaP prostate cancer cells [2]: significantly inhibited
- Xenograft tumor growth [3]: inhibited the growth of tumor significantly

Source: patent publication US9604931B2, “Nuclear receptor binding agents” (GTx, Inc., priority 2007, dated 2017)
